Laboratory results published in patent US12495798B2, “Nicotinamide compound and herbicidal composition comprising compound” (KOREA RESEARCH INSTITUTE OF CHEMICAL TECHNOLOGY, priority 2019, dated 2025).

Key:
Type in all cases: in vivo
sorghum [1] = test: Herbicidal activity test against upland field weeds (foliar treatment test); set-up: key to Foliar treatment herbicidal activity, Sorghum: 0 (no control); 100 (complete control); conditions: 50 g ai/ha, scale 0-100; for plant injury at 50 g/ha: Sorghum
In short: (§1)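 Greenhouse-grown plants (30±5 °C, 14/10 h light/dark) foliar hand-sprayed with compound in 50% acetone, 0.1% Tween-20 at 50 or 75 g a.i./ha. Control visually scored 0 (none) to 100 (complete) versus untreated after 14 days, or 21 days if needed.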

barnyard grass = test: as above; set-up: key to Foliar treatment herbicidal activity, barnyard grass: 0 (no control); 100 (complete control); conditions: 50 g ai/ha, scale 0-100; for pest or weed control at 50 g/ha: Echinochloa crus-galli
In short: as §1

quack grass = test: as above; set-up: key to Foliar treatment herbicidal activity, quack grass: 0 (no control); 100 (complete control); conditions: 50 g ai/ha, scale 0-100
In short: as §1

black nightshade = test: as above; set-up: key to Foliar treatment herbicidal activity, black nightshade: 0 (no control); 100 (complete control); conditions: 50 g ai/ha, scale 0-100
In short: as §1

sorghum [2] = test: Herbicidal activity test against upland field weeds (soil treatment test); set-up: key to Soil treatment herbicidal activity, Sorghum: 0 (no control); 100 (complete control); conditions: 50 g ai/ha, scale 0 (no control) to 100 (complete control)
In short: (§2)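 Pre-emergence soil surface spray, day after sowing, into sandy loam pots with fertilizer; compounds at 50 or 75 g a.i./ha in 50% acetone, 0.1% Tween-20. Greenhouse at 30±5 °C, 14/10 h light/dark; visual control rated 0–100 against untreated after 14 days (21 if needed).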

fall panicum = test: as above; set-up: key to Soil treatment herbicidal activity, Fall panicum: 0 (no control); 100 (complete control); conditions: 50 g ai/ha, scale 0 (no control) to 100 (complete control)
In short: as §2

indian jointvetch = test: as above; set-up: key to Soil treatment herbicidal activity, Indian jointvetch: 0 (no control); 100 (complete control); conditions: 50 g ai/ha, scale 0 (no control) to 100 (complete control)
In short: as §2

velvetleaf = test: as above; set-up: key to Soil treatment herbicidal activity, velvet leaf: 0 (no control); 100 (complete control); conditions: 50 g ai/ha, scale 0 (no control) to 100 (complete control)
In short: as §2

cocklebur = test: as above; set-up: key to Soil treatment herbicidal activity, Cocklebur: 0 (no control); 100 (complete control); conditions: 50 g ai/ha, scale 0 (no control) to 100 (complete control)
In short: as §2

corn = test: Phytotoxicity test for field crops (soil treatment test); set-up: key: 0 (no harm); 9 (complete withered)
Description: (§3) Experimental Example 4: Phytotoxicity Test for Field Crops (Soil Treatment Test)
(§4) Soil treatment was performed for sown crops and weeds in a square plastic pot having a surface area of 50 cm^2 filled with sterilized horticultural soil (pH 6.1, organic material 1.0%, clay 21%, silt 17%, sand 52%). As a fertilizer per pot, 0.5 g of horticultural mixed fertilizer (N:P:K=17:21:17) was treated by mixing with soil. Five kinds of crops such as rice, wheat, corn, soybean, and cotton were sown in each pot. One day after sowing, test compound solutions were made by diluting with the diluent (33% acetone, 0.1% Tween-20) so that the final treatment amount of the test compounds was 19˜300 g a.i./ha. The prepared test compound solutions were treated using a spray booth (SB6-016) at a treatment amount of 100 ml per 1 m^2 of treatment area. The treated crops were managed in greenhouse conditions (average temperature 30±5° C., light/dark=14/10 hours). External symptoms and phytotoxicity were visually investigated 10 and 20 days after treatment. In the evaluation of the phytotoxicity for the crop, the grade of 0 (no harm) to 9 (complete withered) was used. The results of Table 10 were obtained by evaluating phytotoxicity value to the untreated control.

cotton = test: as above; set-up: key: 0 (no harm); 9 (complete withered)
Description: as §3, §4

rice = test: as above; set-up: key: 0 (no harm); 9 (complete withered)
Description: as §3, §4

wheat = test: as above; set-up: key: 0 (no harm); 9 (complete withered)
Description: as §3, §4

soybean = test: as above; set-up: key: 0 (no harm); 9 (complete withered)
Description: as §3, §4

[3] = 50 g ai/ha, Corn (10 days after treatment)
[4] = 50 g ai/ha, Corn (20 days after treatment)
[5] = 100 g ai/ha, Corn (10 days after treatment)
[6] = 100 g ai/ha, Corn (20 days after treatment)
[7] = 50 g ai/ha, Cotton (10 days after treatment)
[8] = 50 g ai/ha, Cotton (20 days after treatment)
[9] = 100 g ai/ha, Cotton (10 days after treatment)
[10] = 100 g ai/ha, Cotton (20 days after treatment)
[11] = 50 g ai/ha, Rice (10 days after treatment)
[12] = 50 g ai/ha, Rice (20 days after treatment)
[13] = 100 g ai/ha, Rice (10 days after treatment)
[14] = 100 g ai/ha, Rice (20 days after treatment)
[15] = 50 g ai/ha, Wheat (10 days after treatment)
[16] = 50 g ai/ha, Wheat (20 days after treatment)
[17] = 100 g ai/ha, Wheat (10 days after treatment)
[18] = 100 g ai/ha, Wheat (20 days after treatment)
[19] = 50 g ai/ha, Soybean (20 days after treatment)

Compound | Foliar treatment herbicidal activity, Sorghum (sorghum [1]) | pest or weed control at 50 g/ha (barnyard grass) | Foliar treatment herbicidal activity, quack grass (quack grass) | Foliar treatment herbicidal activity, black nightshade (black nightshade) | Soil treatment herbicidal activity, Sorghum (sorghum [2]) | Soil treatment herbicidal activity, Fall panicum (fall panicum) | Soil treatment herbicidal activity, Indian jointvetch (indian jointvetch) | Soil treatment herbicidal activity, velvet leaf (velvetleaf) | Soil treatment herbicidal activity, Cocklebur (cocklebur) | Soil treatment phytotoxicity, Corn (corn; [3]) | Soil treatment phytotoxicity, Corn (corn; [4]) | Soil treatment phytotoxicity, Corn (corn; [5]) | Soil treatment phytotoxicity, Corn (corn; [6]) | Soil treatment phytotoxicity, Cotton (cotton; [7]) | Soil treatment phytotoxicity, Cotton (cotton; [8]) | Soil treatment phytotoxicity, Cotton (cotton; [9]) | Soil treatment phytotoxicity, Cotton (cotton; [10]) | Soil treatment phytotoxicity, Rice (rice; [11]) | Soil treatment phytotoxicity, Rice (rice; [12]) | Foliar treatment herbicidal activity, barnyard grass (barnyard grass) | also measured
Cn1nnc(COc2nc(C(F)(F)F)ccc2C(=O)Nc2nnnn2C)n1 [Compound No. 2-1, N-(1-methyl-1H-tetrazol-5-yl)-2-((2-methyl-2H-tetrazol-5-yl)methoxy)-6-(trifluoromethyl)nicotinamide] | 0 | 98% | 0 | 100 | 0 | 0 | 0 | 0 | 0 | 0 | 0 | 0 | 0 | 1 | 2 | 4 | 7 | 3 | 3 | – | Soil treatment phytotoxicity, Rice (rice; [13]): 5; Soil treatment phytotoxicity, Rice (rice; [14]): 5; Soil treatment phytotoxicity, Wheat (wheat; [15]): 0; Soil treatment phytotoxicity, Wheat (wheat; [16]): 0; Soil treatment phytotoxicity, Wheat (wheat; [17]): 0; Soil treatment phytotoxicity, Wheat (wheat; [18]): 0
Cn1nnc(CSCc2nc(C(F)(F)F)ccc2C(=O)Nc2nnnn2C)n1 [Compound No. 2-102, N-(1-methyl-1H-tetrazol-5-yl)-2-((((2-methyl-2H-tetrazol-5-yl)methyl)thio)methyl)-6-(trifluoromethyl)nicotinamide] | – | 95% | 0 | 100 | – | 100 | – | 100 | – | – | – | – | – | – | – | – | – | – | – | – | plant injury at 50 g/ha (sorghum [1]): 70%; plant injury at 50 g/ha (sorghum [2]; Sorghum): 20%
Cn1nnc(CS(=O)(=O)Cc2nc(C(F)(F)F)ccc2C(=O)Nc2nnnn2C)n1 [Compound No. 2-105, N-(1-methyl-1H-tetrazol-5-yl)-2-((((2-methyl-2H-tetrazol-5-yl)methyl)sulfonyl)methyl)-6-(trifluoromethyl)nicotinamide] | – | – | 0 | 100 | 0 | 0 | – | 100 | – | – | – | – | – | – | – | – | – | – | – | 0 | plant injury at 50 g/ha (sorghum [1]): 20%; pest or weed control at 50 g/ha (indian jointvetch): 90%; pest or weed control at 50 g/ha (cocklebur; Xanthium strumarium): 98%
COc1nc(COCc2nc(C(F)(F)F)ccc2C(=O)Nc2nnnn2C)nn1C [Compound No. 2-129, 2-(((5-methoxy-1-methyl-1H-1,2,4-triazol-3-yl)methoxy)methyl)-N-(1-methyl-1H-tetrazol-5-yl)-6-(trifluoromethyl)nicotinamide] | – | 90% | 0 | 100 | 0 | 0 | 0 | – | – | 0 | 0 | 0 | 0 | 0 | 0 | 1 | 5 | 5 | 6 | – | plant injury at 50 g/ha (sorghum [1]): 40%; Soil treatment phytotoxicity, Rice (rice; [13]): 5; Soil treatment phytotoxicity, Rice (rice; [14]): 7; Soil treatment phytotoxicity, Soybean (soybean; 50 g ai/ha, Soybean (10 days after treatment)): 0; Soil treatment phytotoxicity, Soybean (soybean; [19]): 0; Soil treatment phytotoxicity, Wheat (wheat; [15]): 0; Soil treatment phytotoxicity, Wheat (wheat; [16]): 0; Soil treatment phytotoxicity, Wheat (wheat; [17]): 0; Soil treatment phytotoxicity, Wheat (wheat; [18]): 0
COC(=O)OC(C)N(C(=O)c1ccc(C(F)(F)F)nc1COCc1nnn(C)n1)c1nnnn1C (stereo not drawn) [Compound No. 4-4, methyl(1-(N-(1-methyl-1H-tetrazol-5-yl)-2-(((2-methyl-2H-tetrazol-5-yl)methoxy)methyl)-6-(trifluoromethyl)nicotinamido)ethyl)carbonate] | 100 | – | 0 | 100 | 0 | – | – | 100 | 0 | – | – | – | – | – | – | – | – | – | – | 100 | –
CCOC(=O)OC(C)N(C(=O)c1ccc(C(F)(F)F)nc1COCc1nnn(C)n1)c1nnnn1C (stereo not drawn) [Compound No. 4-8, ethyl(1-(N-(1-methyl-1H-tetrazol-5-yl)-2-(((2-methyl-2H-tetrazol-5-yl)methoxy)methyl)-6-(trifluoromethyl)nicotinamido)ethyl)carbonate] | 70 | – | 0 | 100 | 70 | 0 | 100 | 100 | 0 | – | – | – | – | – | – | – | – | – | – | 98 | –
CCOC(=O)OC(C)n1nnn(C)c1=NC(=O)c1ccc(C(F)(F)F)nc1CSCc1nnn(C)n1 (stereo not drawn) [Compound No. 4-10, ethyl (1-(4-methyl-5-((2-((((2-methyl-2H-tetrazol-5-yl)methyl)thio)methyl)-6-(trifluoromethyl)nicotinoyl)imino)-4,5-dihydro-1H-tetrazol-1-yl)ethyl)carbonate] | 100 | – | 0 | 100 | 40 | 40 | 95BI | 100 | – | 0 | 0 | 0 | 0 | 0 | 1 | 0 | 2 | 0 | 0 | 98 | Soil treatment phytotoxicity, Rice (rice; [13]): 0; Soil treatment phytotoxicity, Rice (rice; [14]): 0; Soil treatment phytotoxicity, Soybean (soybean; [19]): 1; Soil treatment phytotoxicity, Soybean (soybean; 100 g ai/ha, Soybean (20 days after treatment)): 3; Soil treatment phytotoxicity, Wheat (wheat; [15]): 0; Soil treatment phytotoxicity, Wheat (wheat; [16]): 0; Soil treatment phytotoxicity, Wheat (wheat; [17]): 0; Soil treatment phytotoxicity, Wheat (wheat; [18]): 0
